The record followed here is ChEMBL document CHEMBL1147420, “Synthesis and biological evaluation of novel coumarin derivatives with a 7-azomethine linkage” (2004).

Holding throughout (format): functional
For test [1], the target named is T1, Beta-glucuronidase (Bos taurus) (UniProt A3KMY8).
T1 sequence (whole entry): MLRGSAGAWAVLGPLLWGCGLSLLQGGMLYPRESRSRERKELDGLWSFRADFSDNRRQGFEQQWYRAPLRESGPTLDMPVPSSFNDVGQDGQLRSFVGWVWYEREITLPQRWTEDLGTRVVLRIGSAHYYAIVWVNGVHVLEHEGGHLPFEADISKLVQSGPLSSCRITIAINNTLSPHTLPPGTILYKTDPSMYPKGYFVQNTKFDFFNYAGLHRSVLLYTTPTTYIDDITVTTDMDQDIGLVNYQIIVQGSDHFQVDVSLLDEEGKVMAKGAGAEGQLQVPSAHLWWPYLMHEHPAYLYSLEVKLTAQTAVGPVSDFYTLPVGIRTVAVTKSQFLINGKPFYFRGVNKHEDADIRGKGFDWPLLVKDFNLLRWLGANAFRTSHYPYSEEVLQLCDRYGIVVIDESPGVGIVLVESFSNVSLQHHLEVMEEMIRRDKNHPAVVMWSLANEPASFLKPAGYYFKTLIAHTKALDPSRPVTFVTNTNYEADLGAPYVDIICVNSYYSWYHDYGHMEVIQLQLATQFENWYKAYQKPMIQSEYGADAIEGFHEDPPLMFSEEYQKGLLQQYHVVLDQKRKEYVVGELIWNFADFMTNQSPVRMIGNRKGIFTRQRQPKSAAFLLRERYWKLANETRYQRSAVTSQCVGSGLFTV
The test can be described thus: Compound was evaluated for in vitro inhibition of beta-glucuronidase at 0.1 mM concentration.

For test [2], the target named is T1, Beta-glucuronidase (Bos taurus). The test can be described thus: Compound was evaluated for in vitro inhibition of beta-glucuronidase at 1 mM concentration.
Test [3] can be described thus: Compound was evaluated for percent inhibition of carrageenan induced rat paw edema at 0.005 mmol/kg.
Test [4] deals with Chymotrypsinogen B (Homo sapiens) (UniProt P17538). The test can be described thus: Compound was evaluated for in vitro inhibition of chymotrypsinogen acting as esterase at 0.1 mM concentration.
Chain of Chymotrypsinogen B (Homo sapiens) (P17538 34-164 limits assumed, other chains not shown): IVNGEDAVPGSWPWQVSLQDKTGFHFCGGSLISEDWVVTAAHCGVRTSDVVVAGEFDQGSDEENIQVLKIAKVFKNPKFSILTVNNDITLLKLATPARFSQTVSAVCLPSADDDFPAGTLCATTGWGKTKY
Chain of Chymotrypsinogen B (Homo sapiens) (P17538 167-263 limits assumed, other chains not shown): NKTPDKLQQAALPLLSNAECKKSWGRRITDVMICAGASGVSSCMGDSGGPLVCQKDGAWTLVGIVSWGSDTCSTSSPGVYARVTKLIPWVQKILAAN
The target is the same in test [5]. Kind of test: Compound was evaluated for in vitro inhibition of chymotrypsinogen acting as esterase at 1 mM concentration.
Test [6] shares this target. Kind of test: Compound was evaluated for in vitro inhibition of chymotrypsinogen induced proteolysis at 0.1 mM concentration; no action.
Test [7] shares this target. The test can be described thus: Compound was evaluated for in vitro inhibition of chymotrypsinogen induced proteolysis at 1 mM concentration.
Test [8] addresses T2, Seed linoleate 13S-lipoxygenase-1 (Glycine max) (UniProt P08170).
T2 sequence (whole entry): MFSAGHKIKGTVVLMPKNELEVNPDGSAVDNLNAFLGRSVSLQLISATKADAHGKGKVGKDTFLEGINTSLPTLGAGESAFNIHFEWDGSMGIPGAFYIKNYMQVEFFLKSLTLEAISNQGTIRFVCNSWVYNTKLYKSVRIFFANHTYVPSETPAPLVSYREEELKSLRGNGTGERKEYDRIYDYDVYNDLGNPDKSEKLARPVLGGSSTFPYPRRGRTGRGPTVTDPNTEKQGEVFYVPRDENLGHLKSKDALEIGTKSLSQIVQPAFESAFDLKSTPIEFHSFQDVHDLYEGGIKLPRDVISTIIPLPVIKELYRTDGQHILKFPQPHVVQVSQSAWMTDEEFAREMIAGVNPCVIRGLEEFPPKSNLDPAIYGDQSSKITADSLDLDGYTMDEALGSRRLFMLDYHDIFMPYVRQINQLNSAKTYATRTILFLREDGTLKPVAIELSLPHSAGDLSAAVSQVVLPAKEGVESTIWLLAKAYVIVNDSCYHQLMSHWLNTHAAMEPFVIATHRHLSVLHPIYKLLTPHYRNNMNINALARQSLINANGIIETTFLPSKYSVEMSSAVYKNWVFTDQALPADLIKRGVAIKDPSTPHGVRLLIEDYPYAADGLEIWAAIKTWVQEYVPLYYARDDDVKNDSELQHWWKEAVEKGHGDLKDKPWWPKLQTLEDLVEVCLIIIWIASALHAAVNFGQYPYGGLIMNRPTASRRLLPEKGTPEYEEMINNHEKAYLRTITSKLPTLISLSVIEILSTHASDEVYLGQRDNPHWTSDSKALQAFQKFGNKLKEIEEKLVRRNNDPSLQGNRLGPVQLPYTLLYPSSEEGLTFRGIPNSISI
The test can be described thus: Compound was evaluated for in vitro inhibition of soybean lipoxygenase at 1 mM concentration.

Test [9] addresses Serine protease 1 (Homo sapiens) (UniProt P07477). Kind of test: Compound was evaluated for in vitro inhibition of trypsin acting as esterase at 0.1 mM concentration.
The target is the same in test [10]. The test can be described thus: Compound was evaluated for in vitro inhibition of trypsin acting as esterase at 1 mM concentration.
The target is the same in test [11]. Kind of test: Compound was evaluated for in vitro inhibition of trypsin induced proteolysis at 0.1 mM concentration.
The target is the same in test [12]. Kind of test: Compound was evaluated for in vitro inhibition of trypsin induced proteolysis at 1 mM concentration.
A short description of test [13]: Competition percent of compound with DMSO for hydroxyl radical was determined at 0.01 mM concentration.
Test [14] is described as follows: Competition percent of compound with DMSO for hydroxyl radical was determined at 0.1 mM concentration.
Test [15] in a line: Interaction percent with DPPH after 60 minutes was determined at 0.2 mM concentration. Background: Loss of DPPH colour is used to gauge radical scavenging.
Test [16] in a line: Interaction percent with DPPH after 60 minutes was determined at 0.5 mM concentration.
The nature of test [17]: Interaction percent with DPPH after 20 minutes was determined at 0.1 mM concentration.
Test [18] can be described thus: Interaction percent with DPPH after 20 minutes was determined at 0.2 mM concentration.
Test [19] in a line: Interaction percent with DPPH after 20 minutes was determined at 0.5 mM concentration.
Test [20] in a line: Interaction percent with DPPH after 60 minutes was determined at 0.1 mM concentration.
Test [21] concerns the target T2, Seed linoleate 13S-lipoxygenase-1 (Glycine max). The test can be described thus: Compound was evaluated for in vitro inhibition of soybean lipoxygenase at 0.1 mM concentration; no action.
The target of test [22] is Chymotrypsinogen B (Homo sapiens) (UniProt P17538). The test can be described thus: Compound was evaluated for in vitro inhibition of chymotrypsinogen induced proteolysis at 0.1 mM concentration.
Test [23] addresses T2, Seed linoleate 13S-lipoxygenase-1 (Glycine max). Kind of test: Compound was evaluated for in vitro inhibition of soybean lipoxygenase at 1 mM concentration; no action.
Test [24] has the same target. Kind of test: Compound was evaluated for in vitro inhibition of soybean lipoxygenase at 0.1 mM concentration.
In test [25] the target is Serine protease 1 (Homo sapiens) (UniProt P07477). Kind of test: Compound was evaluated for in vitro inhibition of trypsin induced proteolysis at 0.1 mM concentration; no action.
Chain of Serine protease 1 (Homo sapiens) (P07477 whole entry): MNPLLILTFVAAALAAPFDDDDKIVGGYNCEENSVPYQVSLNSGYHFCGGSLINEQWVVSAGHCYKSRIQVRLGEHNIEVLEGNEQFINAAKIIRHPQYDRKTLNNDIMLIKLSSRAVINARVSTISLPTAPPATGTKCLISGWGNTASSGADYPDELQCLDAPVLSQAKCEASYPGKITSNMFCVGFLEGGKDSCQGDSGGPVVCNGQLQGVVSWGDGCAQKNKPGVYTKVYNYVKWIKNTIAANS
Test [26] in a line: Competition percent of compound with DMSO for hydroxyl radical was determined at 0.1 mM concentration; No result.

For `CC(O)Cc1ccc2ccc(=O)oc2c1` (stereo not drawn), the inhibition (as a rule, the share of the control response that was lost under treatment) in [1] is 7.5%; in [2], 92.3%; in [4], 31.3%; in test [5] it was 100%; in [6], “No action”; in test [7], 63.1%. In addition, the inhibition in [8] was 100%; in test [9], 29.3%; in [10] it was 99.4%; in test [11] it was 41.1%; in [12], 95.4%; in test [21], “No action”. The inhibition in vivo – broadly, how much of the control response was suppressed – at 5 µmol/kg in [3] turned out to be 18%. Besides, the results for the Competition in test [13] and in test [14] were 80.7% and 81.8%, respectively. Moreover, the RA in [15] was 16.8%; in test [16] it was 25.6%; in test [17], 14.5%; in [18], 18.4%; in [19], 22.9%; in test [20], 13.3%.

With `CC(=O)CC(c1ccccc1)c1c(O)c2ccccc2oc1=O` (stereo not drawn) [WARFARIN], in test [3], the inhibition in vivo at 5 µmol/kg was found to be 41%. In addition, the inhibition in [4] was 18.4%; in test [5], 98.2%; in test [22] it was 62.4%; in test [7], 86.7%; in test [23], “No action”; in [9], 21.2%. The figures for the inhibition in test [10], in test [11] and in test [12] were 97.5%, 92.5% and 94.8%, respectively. Further, in test [14], the Competition was determined as 95.8%. The RA in test [16] was 12.8%; in [17] it was 9.2%; in test [19] it was 10.3%; in [20], 24%.

As for `CN/N=C/c1ccc2ccc(=O)oc2c1`, the inhibition in test [1] is 6.9%; in [2] it was 93.3%; in test [4] it was 10%; in test [5], 83.4%; in test [6], “No action”; in test [7], 93.9%. Moreover, the inhibition in test [8] is 100%; in test [24], 70.8%; in [9], 22.6%; in [10] it was 97.6%; in test [25] it was “No action”; in test [12], 100%. The compound further returned an inhibition in vivo at 5 µmol/kg in test [3] of 54.7%. Further, the Competition in test [13] was 97.3%; in test [26] it was “No results”. The RA came out at 86.7% in test [15]; 87.3% in [16]; 69.7% in test [17]; 84.8% in test [18]; 92.4% in test [19]; 80.7% in test [20].

In the case of `O=c1ccc2ccc(/C=N/Nc3ccccc3)cc2o1`, the inhibition was 5.9% in test [1]; 96.8% in test [2]; 30.6% in test [4]; 88.7% in [5]; “No action” in test [6]; 80.1% in [7]. Moreover, the inhibition was 71.2% in test [8]; 77.4% in test [24]; 31.4% in [9]; 99.9% in test [10]; “No action” in test [25]; 64.5% in test [12]. This compound also showed an inhibition in vivo at 5 µmol/kg in test [3] of 35.2%. Also, the Competition in test [13] is 15.4%; in test [14], 65.5%. The RA worked out at 64.4% in test [15]; 79.1% in test [16]; 36.2% in test [17]; 48.9% in [18]; 78.7% in [19]; 56.2% in test [20].
